Experimental data: the supplement of paper PMC10307832

Tests used:
Test in all cases: relative viability (nuclei count vs DMSO), 5 days (fraction); higher = more cells survive
RO-3306 + Phenformin = compound: C1=CC2=C(C=CC(=C2)C=C3C(=O)NC(=NCC4=CC=CS4)S3)N=C1 [RO-3306] + N=C(N)NC(=N)NCCc1ccccc1 [Phenformin] (partner 250 µM)
Procedure, shortened: (§1)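 Five library-drug doses in √10 steps were combined with a fixed anchor-drug dose, or a single drug was given alone, by pin tool to lung cancer cell lines in 1536-well plates the day after seeding. Nuclei were stained and counted after 5 days. Relative viability is the nuclei count in treated wells over that in vehicle wells, taken as the median of duplicate plates.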

RO-3306 + Linsitinib = compound: C1=CC2=C(C=CC(=C2)C=C3C(=O)NC(=NCC4=CC=CS4)S3)N=C1 [RO-3306] + C[C@]1(O)C[C@@H](c2nc(-c3ccc4ccc(-c5ccccc5)nc4c3)c3c(N)nccn32)C1 [Linsitinib] (partner 1 µM)
Procedure, shortened: as §1

[1] = compound: O=S(=O)(c1ccccc1)N(CC(F)(F)F)c1ccc(C(O)(C(F)(F)F)C(F)(F)F)cc1 + Nc1ncn([C@H]2C[C@H](O)[C@@H](CO)O2)c(=O)n1 [Decitabine] (partner 2 µM)
Procedure, shortened: as §1

RO-3306 + Decitabine = compound: C1=CC2=C(C=CC(=C2)C=C3C(=O)NC(=NCC4=CC=CS4)S3)N=C1 [RO-3306] + Nc1ncn([C@H]2C[C@H](O)[C@@H](CO)O2)c(=O)n1 [Decitabine] (partner 2 µM)
Procedure, shortened: as §1

Row | Cell Line | relative viability (RO-3306 + Phenformin; first compound 0.01 µM) | relative viability (RO-3306 + Phenformin; first compound 0.03162 µM) | relative viability (RO-3306 + Phenformin; first compound 0.1 µM) | relative viability (RO-3306 + Phenformin; first compound 0.3162 µM) | relative viability (RO-3306 + Phenformin; first compound 1 µM) | relative viability (RO-3306 + Linsitinib; first compound 0.01 µM) | relative viability (RO-3306 + Linsitinib; first compound 0.03162 µM) | relative viability (RO-3306 + Linsitinib; first compound 0.1 µM) | relative viability (RO-3306 + Linsitinib; first compound 0.3162 µM) | relative viability (RO-3306 + Linsitinib; first compound 1 µM) | relative viability ([1]; first compound 0.8 µM) | relative viability ([1]; first compound 2.53 µM) | relative viability ([1]; first compound 8 µM) | relative viability (RO-3306 + Decitabine; first compound 0.01 µM) | relative viability (RO-3306 + Decitabine; first compound 0.03162 µM) | relative viability (RO-3306 + Decitabine; first compound 0.1 µM) | relative viability (RO-3306 + Decitabine; first compound 0.3162 µM) | relative viability (RO-3306 + Decitabine; first compound 1 µM)
1 | CAL-12T | 0.56 | 0.445 | 0.511 | 0.597 | 0.674 | 0.889 | 0.607 | 0.889 | 0.824 | 0.874 | – | – | – | – | – | – | – | –
2 | SK-LU-1 | 0.461 | 0.426 | 0.503 | 0.484 | 0.453 | 1.25 | 1.08 | 1.02 | 1.19 | 0.957 | 0.669 | 0.63 | 0.703 | 0.657 | 0.537 | 0.597 | 0.643 | 0.56
3 | LCLC-97TM1 | 0.395 | 0.442 | 0.45 | 0.455 | 0.472 | – | 0.167 | 0.203 | 0.202 | 0.162 | – | 0.22 | 0.196 | 0.203 | 0.223 | 0.196 | 0.229 | 0.266
4 | LXF-289 | 0.52 | 0.507 | 0.506 | 0.543 | 0.428 | 1.08 | 0.913 | 0.969 | 0.957 | 0.961 | 0.411 | 0.419 | 0.429 | 0.377 | 0.36 | 0.387 | 0.333 | 0.424
5 | HCC-366 | 0.644 | 0.547 | 0.65 | 0.613 | 0.63 | 0.531 | 0.405 | 0.594 | 0.886 | 0.569 | 0.394 | 0.376 | 0.242 | 0.363 | 0.281 | 0.348 | 0.37 | 0.402
6 | NCI-H1355 | 0.429 | – | 0.516 | 0.422 | 0.404 | 1.04 | 0.802 | 0.763 | 0.929 | 0.799 | 0.354 | 0.382 | 0.342 | 0.395 | 0.341 | 0.353 | 0.355 | 0.362
7 | H3255 | 0.392 | 0.326 | 0.315 | 0.32 | 0.332 | 1.17 | 0.814 | 1.01 | 0.918 | 0.945 | 0.567 | 0.473 | 0.642 | 0.727 | 0.509 | 0.625 | 0.641 | 0.57
8 | ChaGo-K-1 | 0.579 | 0.404 | 0.447 | 0.443 | 0.337 | – | – | – | – | – | 0.746 | 0.497 | 0.49 | 0.514 | 0.508 | 0.521 | 0.476 | 0.363
